Measurements reported in patent US11040035B2, “3-oxo-2,6-diphenyl-2,3-dihydropyridazine-4-carboxamides” (BAYER PHARMA AKTIENGESELLSCHAFT, priority 2016, dated 2021).

Key:
AHR [1] = target: T1, AHR (Homo sapiens, UniProt P35869); experiment: In vitro assay 2: agonism in human cell line (transactivation assay)
T1 sequence (P35869 11-848): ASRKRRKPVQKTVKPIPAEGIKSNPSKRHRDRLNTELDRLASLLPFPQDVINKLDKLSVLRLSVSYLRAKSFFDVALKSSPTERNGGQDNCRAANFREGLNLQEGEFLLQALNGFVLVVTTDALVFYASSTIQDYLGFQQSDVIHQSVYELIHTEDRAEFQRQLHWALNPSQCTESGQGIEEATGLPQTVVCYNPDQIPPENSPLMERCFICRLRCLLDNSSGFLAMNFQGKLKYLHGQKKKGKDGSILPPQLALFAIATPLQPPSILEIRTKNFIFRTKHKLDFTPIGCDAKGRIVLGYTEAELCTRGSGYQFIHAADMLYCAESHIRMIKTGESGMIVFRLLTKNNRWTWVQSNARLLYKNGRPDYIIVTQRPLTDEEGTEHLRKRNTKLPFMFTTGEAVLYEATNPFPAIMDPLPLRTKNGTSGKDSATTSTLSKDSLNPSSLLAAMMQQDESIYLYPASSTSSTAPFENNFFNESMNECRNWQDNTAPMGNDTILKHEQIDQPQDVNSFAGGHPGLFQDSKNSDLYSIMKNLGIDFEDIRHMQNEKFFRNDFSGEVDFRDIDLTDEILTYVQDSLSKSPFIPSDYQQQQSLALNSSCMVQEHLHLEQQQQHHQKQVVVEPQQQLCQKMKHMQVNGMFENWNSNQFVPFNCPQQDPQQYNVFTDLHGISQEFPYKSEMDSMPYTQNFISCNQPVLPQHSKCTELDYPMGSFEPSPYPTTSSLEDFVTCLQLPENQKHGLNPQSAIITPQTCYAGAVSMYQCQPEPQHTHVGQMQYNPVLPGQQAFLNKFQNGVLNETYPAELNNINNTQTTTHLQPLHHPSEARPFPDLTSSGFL

AHR [2] = target: T1, AHR; experiment: In vitro assay 1: antagonism in human cell line (transactivation assay, kynurenic acid prestimulated); conditions: Assay 1: AHR-luc Hum Antagonism IC50 [M], 150 μM kynurenic acid, 20 hours, firefly luciferase
Protocol: Transactivation assays were carried out in U87 glioblastoma cells (ATCC) endogenously expressing AHR. In addition the cells were stably transfected with an AHR inducible firefly luciferase reporter gene construct that carried AHR-binding sites (DRE) in its promoter and a renilla reporter gene construct with constitutively active promoter. Kynurenic acid is an endogenous AHR activating ligand and was used to prestimulate test cells prior to testing the antagonistic properties of compounds.
In Vitro Assay 1: Antagonism in Human Cell Line
Cells in medium (tryptophan free RPMI, 1% FCS, 2 mM Glutamine) supplemented with 150 μM kynurenic acid were grown for 20 hours in absence (negative control) or presence of increasing concentrations of test compounds (typical dilutions: 72 pmol/L, 0.25 nmol/L, 0.89 nmol/L; 3.1 nmol/L, 11 nmol/L, 38 nmol/L, 130 nmol/L, 470 nmol/L, 1.6 μmol/L, 5.7 μmol/L and 20 μmol/L in duplicates). As positive inhibition control cells supplemented with 150 μM kynurenic acid were incubated in presence of 5 μM Staurosporin. Normalization was done by positive and negative controls.
Firefly luciferase and Renilla activity was determined by the DualGlo Luciferase Assay System (Promega, #2920).

[3] = Assay 2: AHR-luc Hum Agonism IC50 [M], no kynurenic acid, 20 hours, firefly luciferase
[4] = read-out: Assay 2: AHR-luc Hum Agonism IC50, no kynurenic acid, 20 hours, firefly luciferase

IC50 (AHR [1]; [3]) [M]	IC50 (AHR [2]) [M]	IC50 (AHR [1]; [4]) [M]	Compound
> 2e-05	2.22e-07		N#Cc1cccc(-n2nc(-c3ccc(Cl)cc3)cc(C(=O)NCC(O)C(F)(F)F)c2=O)c1 (single isomer, unassigned) [Example 363, 6-(4-chlorophenyl)-2-(3-cyanophenyl)-3-oxo-N-(3,3,3-trifluoro-2-hydroxypropyl)-2,3-dihydropyridazine-4-carboxamide]
	5.72e-07	> 2e-05	N#Cc1cccc(-n2nc(-c3ccc(Cl)cc3)cc(C(=O)NCC(O)C(F)(F)F)c2=O)c1 (single isomer, unassigned) [Example 364, 6-(4-chlorophenyl)-2-(3-cyanophenyl)-3-oxo-N-(3,3,3-trifluoro-2-hydroxypropyl)-2,3-dihydropyridazine-4-carboxamide]
> 2e-05	5e-07		Cc1cccc(-n2nc(-c3ccc(Cl)cc3)cc(C(=O)NCC(O)C(F)(F)F)c2=O)c1 (single isomer, unassigned) [Example 367, 6-(4-chlorophenyl)-2-(3-methylphenyl)-3-oxo-N-(3,3,3-trifluoro-2-hydroxypropyl)-2,3-dihydropyridazine 4-carboxamide]
	1.86e-06	> 2e-05	Cc1cccc(-n2nc(-c3ccc(Cl)cc3)cc(C(=O)NCC(O)C(F)(F)F)c2=O)c1 (single isomer, unassigned) [Example 368, 6-(4-chlorophenyl)-2-(3-methylphenyl)-3-oxo-N-(3,3,3-trifluoro-2-hydroxypropyl)-2,3-dihydropyridazine-4-carboxamide]
> 2e-05	2.4e-08		O=C(N[C@H]1COC[C@H]1O)c1cc(-c2ccc(Cl)cc2)nn(-c2cccc(F)c2)c1=O (single isomer, unassigned) [Example 384, 6-(4-chlorophenyl)-2-(3-fluorophenyl)-N-[cis-4-hydroxytetrahydrofuran-3-yl]-3-oxo-2,3-dihydropyridazine-4-carboxamide]
	8.8e-08	> 2e-05	O=C(N[C@H]1COC[C@H]1O)c1cc(-c2ccc(Cl)cc2)nn(-c2cccc(F)c2)c1=O (single isomer, unassigned) [Example 385, 6-(4-chlorophenyl)-2-(3-fluorophenyl)-N-[cis-4-hydroxytetrahydrofuran-3-yl]-3-oxo-2,3-dihydropyridazine-4-carboxamide]
> 2e-05	2.7e-07		O=C(NCC(O)C(F)(F)F)c1cc(-c2ccc(Cl)c(F)c2)nn(-c2cc(F)cc(F)c2)c1=O (single isomer, unassigned) [Example 404, 6-(4-chloro-3-fluorophenyl)-2-(3,5-difluorophenyl)-3-oxo-N-(3,3,3-trifluoro-2-hydroxypropyl)-2,3-dihydropyridazine-4-carboxamide]
	1.97e-07	> 2e-05	O=C(NCC(O)C1CC1)c1cc(-c2ccc(Cl)cc2)nn(-c2cccc(F)c2)c1=O (single isomer, unassigned; (+)) [Example 192, (+)-6-(4-Chlorophenyl)-N-(2-cyclopropyl-2-hydroxyethyl)-2-(3-fluorophenyl)-3-oxo-2,3-dihydropyridazine-4-carboxamide]
	2.5e-07	> 2e-05	O=C(NC(CO)C1CC1)c1cc(-c2ccc(Cl)cc2)nn(-c2cccc(F)c2)c1=O (single isomer, unassigned; (+)) [Example 195, (+)-6-(4-Chlorophenyl)-N-(1-cyclopropyl-2-hydroxyethyl)-2-(3-fluorophenyl)-3-oxo-2,3-dihydropyridazine-4-carboxamide]
> 2e-05	8.64e-08		CC(CO)CNC(=O)c1cc(-c2ccc(Cl)cc2)nn(-c2cccc(F)c2)c1=O (single isomer, unassigned; (+)) [Example 201, (+)-6-(4-Chlorophenyl)-2-(3-fluorophenyl)-N-(3-hydroxy-2-methylpropyl)-3-oxo-2,3-dihydropyridazine-4-carboxamide]
> 2e-05	6.29e-08		CC(CCO)NC(=O)c1cc(-c2ccc(Cl)cc2)nn(-c2cccc(F)c2)c1=O (single isomer, unassigned; (+)) [Example 207, (+)-6-(4-Chlorophenyl)-2-(3-fluorophenyl)-N-(4-hydroxybutan-2-yl)-3-oxo-2,3-dihydropyridazine-4-carboxamide]
> 2e-05	4.12e-07		O=C(NC(CO)C1CCC1)c1cc(-c2ccc(Cl)cc2)nn(-c2cccc(F)c2)c1=O (single isomer, unassigned; (+)) [Example 210, (+)-6-(4-Chlorophenyl)-N-(1-cyclobutyl-2-hydroxyethyl)-2-(3-fluorophenyl)-3-oxo-2,3-dihydropyridazine-4-carboxamide]
	1.28e-07	> 2e-05	O=C(NCC(O)C(F)F)c1cc(-c2ccc(Cl)cc2)nn(-c2cccc(F)c2)c1=O (single isomer, unassigned; (+)) [Example 223, (+)-6-(4-Chlorophenyl)-N-(3,3-difluoro-2-hydroxypropyl)-2-(3-fluorophenyl)-3-oxo-2,3-dihydropyridazine-4-carboxamide]
> 2e-05	2.41e-07		O=C(NC(CO)CCO)c1cc(-c2ccc(Cl)cc2)nn(-c2cccc(F)c2)c1=O (single isomer, unassigned; (+)) [Example 225, (+)-6-(4-Chlorophenyl)-N-(1,4-dihydroxybutan-2-yl)-2-(3-fluorophenyl)-3-oxo-2,3-dihydropyridazine-4-carboxamide]
	3.17e-08	> 2e-05	O=C(NCC(O)C(F)(F)F)c1cc(-c2ccc(C(F)(F)F)cc2)nn(-c2cccc(F)c2)c1=O (single isomer, unassigned; (+)) [Example 244]
	1.49e-08	> 2e-05	O=C(NC(CCO)C(F)(F)F)c1cc(-c2ccc(Cl)cc2)nn(-c2cccc(F)c2)c1=O (single isomer, unassigned; (+)) [Example 343, (+)-6-(4-chlorophenyl)-2-(3-fluorophenyl)-3-oxo-N-(1,1,1-trifluoro-4-hydroxybutan-2-yl)-2,3-dihydropyridazine-4-carboxamide]
	1e-07	> 2e-05	O=C(NC(CO)C1CC1)c1cc(-c2ccc(C(F)(F)F)cc2)nn(-c2cccc(F)c2)c1=O (single isomer, unassigned; (+)) [Example 352, (+)-N-(1-cyclopropyl-2-hydroxyethyl)-2-(3-fluorophenyl)-3-oxo-6-[4-(trifluoromethyl)phenyl]-2,3-dihydropyridazine-4-carboxamide]
> 2e-05	> 2e-05		O=C(NC(CO)C(F)(F)F)c1cc(-c2ccc(Cl)cc2)nn(-c2cccc(F)c2)c1=O (single isomer, unassigned; (-)) [Example 98, (−)-6-(4-Chlorophenyl)-2-(3-fluorophenyl)-3-oxo-N-(1,1,1-trifluoro-3-hydroxypropan-2-yl)-2,3-dihydropyridazine-4-carboxamide]
> 2e-05	1.1e-07		O=C(NCC(O)C1CC1)c1cc(-c2ccc(Cl)cc2)nn(-c2cccc(F)c2)c1=O (single isomer, unassigned; (-)) [Example 191, (−)-6-(4-Chlorophenyl)-N-(2-cyclopropyl-2-hydroxyethyl)-2-(3-fluorophenyl)-3-oxo-2,3-dihydropyridazine-4-carboxamide]
> 2e-05	1.21e-08		O=C(NC(CO)C1CC1)c1cc(-c2ccc(Cl)cc2)nn(-c2cccc(F)c2)c1=O (single isomer, unassigned; (-)) [Example 194, (−)-6-(4-Chlorophenyl)-N-(1-cyclopropyl-2-hydroxyethyl)-2-(3-fluorophenyl)-3-oxo-2,3-dihydropyridazine-4-carboxamide]
	1.02e-07	> 2e-05	CC(CO)CNC(=O)c1cc(-c2ccc(Cl)cc2)nn(-c2cccc(F)c2)c1=O (single isomer, unassigned; (-)) [Example 202, (−)-6-(4-Chlorophenyl)-2-(3-fluorophenyl)-N-(3-hydroxy-2-methylpropyl)-3-oxo-2,3-dihydropyridazine-4-carboxamide]
	2e-07	> 2e-05	CC(CCO)NC(=O)c1cc(-c2ccc(Cl)cc2)nn(-c2cccc(F)c2)c1=O (single isomer, unassigned; (-)) [Example 208, (−)-6-(4-Chlorophenyl)-2-(3-fluorophenyl)-N-(4-hydroxybutan-2-yl)-3-oxo-2,3-dihydropyridazine-4-carboxamide]
	1.42e-07	> 2e-05	O=C(NC(CO)CCO)c1cc(-c2ccc(Cl)cc2)nn(-c2cccc(F)c2)c1=O (single isomer, unassigned; (-)) [Example 226, (−)-6-(4-Chlorophenyl)-N-(1,4-dihydroxybutan-2-yl)-2-(3-fluorophenyl)-3-oxo-2,3-dihydropyridazine-4-carboxamide]
